Measurements reported in patent publication US20260207623A1, “USE OF ESTETROL IN HEPATICALLY IMPAIRED PATIENTS” (ESTETRA SRL, priority 2022, published 2026).

Tests used:
post-menopausal women [1] = assay: Example 2: patients leaving the study; assay type: in vivo, human
Description: 3. Patients Leaving the Study

post-menopausal women [2] = assay: Example 3 (15 mg, 20 mg E4 monohydrate or placebo): weekly frequency of moderate to severe VMS and responder proportions; assay type: in vivo, human
Experimental: A further clinical study was designed to evaluate the effect of 15 or 20 mg estetrol (E4) monohydrate, or placebo on the severity and frequency of vasomotor symptoms (VMS) and the safety of E4 20 mg. The inclusion and exclusion criteria as described for Example 2 were maintained for the present Example (i.e. Example 3).
• 1. Mean change in weekly frequency of moderate to severe vasomotor symptoms (VMS) from Baseline to Week 4 (Efficacy Study Part) [Time Frame: Baseline and Week 4]: • The weekly frequency of moderate to severe VMS at Baseline and Week 4 is defined as the total number (sum) of all recorded moderate to severe VMS experienced during the last 7 consecutive days prior randomization for Baseline and at Week 4. Mean change=mean weekly frequency at Week 4-mean weekly frequency at Baseline. • 2. Mean change in weekly frequency of moderate to severe vasomotor symptoms (VMS) from Baseline to Week 12 (Efficacy Study Part) [Time Frame: Baseline and Week 12] • The weekly frequency of moderate to severe VMS at Baseline and Week 12 is defined as the total number (sum) of all recorded moderate to severe VMS experienced during the last 7 consecutive days prior randomization for Baseline and at Week 12. Mean change=mean weekly frequency at Week 12-mean weekly frequency at Baseline. • 3. […]

Structure (SMILES)	Number of patients leaving the study (post-menopausal women [1]; 2.5 mg daily)	Number of patients leaving the study (post-menopausal women [1]; 5 mg daily)	Number of patients leaving the study (post-menopausal women [1]; 10 mg daily)	Number of patients leaving the study (post-menopausal women [1]; 15 mg daily)	frequency of moderate to severe VMS (post-menopausal women [2]; 15 mg and 20 mg vs placebo, weeks 4 and 12 (FIG. 10))	number of women with reduced VMS frequency (at least 50% or 75% reduction) vs placebo (post-menopausal women [2]; FIG. 11)
C[C@]12CC[C@@H]3c4ccc(O)cc4CC[C@H]3[C@@H]1[C@@H](O)[C@@H](O)[C@@H]2O [E4 monohydrate, estetrol monohydrate]	9	11	15	8		
C[C@]12CC[C@@H]3c4ccc(O)cc4CC[C@H]3[C@@H]1[C@@H](O)[C@@H](O)[C@@H]2O [E4, 1,3,5 (10)-estratrien-3,15alpha, 16alpha, 17beta-tetrol]					significantly decreased	higher number of women that experienced a reduced VMS frequency than placebo
